Data taken from PMC9030254, “Target Hopping from Protein Kinases to PXR: Identification of Small-Molecule Protein Kinase Inhibitors as Selective Modulators of Pregnane X Receptor from TüKIC Library” (Cells, 2022).

What was measured:
Experiment in all cases: Kinase profiling
Format in all cases: biochemical
[1] = biological target: T1, CDK17/p35NCK (Homo sapiens, UniProt Q00537)
T1 construct: purchased ProQinase (Freiburg, Germany)
Protocol: (§1) The analysis was performed by ProQinase (Freiburg, Germany).

[2] = biological target: T2, PKCbeta1 (Homo sapiens, UniProt P05771)
T2 construct: purchased ProQinase (Freiburg, Germany)
Protocol: as §1

[3] = biological target: T3, MKK6 SDTD (Homo sapiens, UniProt P52564, S207D/T211D)
T3 construct: purchased ProQinase (Freiburg, Germany)
T3 sequence (P52564 1-334 S207D/T211D): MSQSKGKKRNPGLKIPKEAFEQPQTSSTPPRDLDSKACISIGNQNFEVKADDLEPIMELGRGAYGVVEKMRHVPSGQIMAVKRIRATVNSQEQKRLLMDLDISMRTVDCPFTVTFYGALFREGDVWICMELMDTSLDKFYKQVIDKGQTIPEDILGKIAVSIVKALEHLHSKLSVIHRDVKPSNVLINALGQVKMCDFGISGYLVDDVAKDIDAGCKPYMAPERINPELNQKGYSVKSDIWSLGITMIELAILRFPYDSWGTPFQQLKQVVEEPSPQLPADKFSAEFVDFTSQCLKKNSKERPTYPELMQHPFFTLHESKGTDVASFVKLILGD
Protocol: as §1

[4] = biological target: T4, NLK (Homo sapiens, UniProt Q9UBE8)
T4 construct: purchased ProQinase (Freiburg, Germany)
T4 sequence (Q9UBE8 1-527): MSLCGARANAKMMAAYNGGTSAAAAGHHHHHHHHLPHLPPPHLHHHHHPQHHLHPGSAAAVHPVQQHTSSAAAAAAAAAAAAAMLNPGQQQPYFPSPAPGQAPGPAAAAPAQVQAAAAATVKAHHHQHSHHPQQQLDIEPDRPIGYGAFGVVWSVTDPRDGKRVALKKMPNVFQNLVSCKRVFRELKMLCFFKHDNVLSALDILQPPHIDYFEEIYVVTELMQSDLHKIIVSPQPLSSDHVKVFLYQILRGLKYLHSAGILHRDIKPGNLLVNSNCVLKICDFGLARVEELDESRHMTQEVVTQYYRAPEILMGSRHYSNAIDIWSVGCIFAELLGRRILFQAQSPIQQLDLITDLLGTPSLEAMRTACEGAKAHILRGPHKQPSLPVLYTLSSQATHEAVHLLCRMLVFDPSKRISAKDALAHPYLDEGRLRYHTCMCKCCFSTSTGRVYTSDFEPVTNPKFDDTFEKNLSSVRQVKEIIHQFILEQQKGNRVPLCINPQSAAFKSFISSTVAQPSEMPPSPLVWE
Protocol: as §1

[5] = biological target: T5, GRK7 (Homo sapiens, UniProt Q8WTQ7)
T5 construct: purchased ProQinase (Freiburg, Germany)
T5 sequence (Q8WTQ7 1-553): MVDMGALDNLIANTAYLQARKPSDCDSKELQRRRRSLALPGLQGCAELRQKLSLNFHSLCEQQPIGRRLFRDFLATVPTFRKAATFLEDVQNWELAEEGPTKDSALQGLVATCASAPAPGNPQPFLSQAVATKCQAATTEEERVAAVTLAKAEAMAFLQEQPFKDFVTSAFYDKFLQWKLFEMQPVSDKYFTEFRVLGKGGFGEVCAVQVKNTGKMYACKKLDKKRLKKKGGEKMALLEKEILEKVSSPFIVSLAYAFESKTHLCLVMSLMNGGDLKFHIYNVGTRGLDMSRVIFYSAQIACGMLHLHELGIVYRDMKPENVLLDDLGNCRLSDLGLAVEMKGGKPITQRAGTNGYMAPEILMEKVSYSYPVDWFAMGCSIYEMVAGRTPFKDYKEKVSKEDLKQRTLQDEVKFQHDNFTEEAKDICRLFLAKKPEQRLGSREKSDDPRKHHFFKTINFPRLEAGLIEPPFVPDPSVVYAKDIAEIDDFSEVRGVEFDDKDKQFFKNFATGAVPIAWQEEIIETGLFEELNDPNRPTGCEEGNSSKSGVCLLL
Protocol: as §1

[6] = biological target: T6, JNK2 (Homo sapiens, UniProt P45984)
T6 construct: purchased ProQinase (Freiburg, Germany)
Protocol: as §1

[7] = biological target: T7, CK1epsilon (Homo sapiens, UniProt P49674)
T7 construct: purchased ProQinase (Freiburg, Germany)
Protocol: as §1

[8] = biological target: T8, AKT3 (Homo sapiens, UniProt Q9Y243)
T8 construct: purchased ProQinase (Freiburg, Germany)
Protocol: as §1

[9] = biological target: T9, RPS6KA4 (Homo sapiens, UniProt O75676)
T9 construct: purchased ProQinase (Freiburg, Germany)
Protocol: as §1

[10] = biological target: T10, SNK (Homo sapiens, UniProt Q9NYY3)
T10 construct: purchased ProQinase (Freiburg, Germany)
Protocol: as §1

[11] = biological target: T11, PKCgamma (Homo sapiens, UniProt P05129)
T11 construct: purchased ProQinase (Freiburg, Germany)
Protocol: as §1

[12] = biological target: T12, MEK2 (Homo sapiens, UniProt P36507)
T12 construct: purchased ProQinase (Freiburg, Germany)
Protocol: as §1

[13] = biological target: T13, BLK (Homo sapiens, UniProt P51451)
T13 construct: purchased ProQinase (Freiburg, Germany)
Protocol: as §1

[14] = biological target: T14, RPS6KA5 (Homo sapiens, UniProt O75582)
T14 construct: purchased ProQinase (Freiburg, Germany)
Protocol: as §1

T2 sequence (P05771 whole entry): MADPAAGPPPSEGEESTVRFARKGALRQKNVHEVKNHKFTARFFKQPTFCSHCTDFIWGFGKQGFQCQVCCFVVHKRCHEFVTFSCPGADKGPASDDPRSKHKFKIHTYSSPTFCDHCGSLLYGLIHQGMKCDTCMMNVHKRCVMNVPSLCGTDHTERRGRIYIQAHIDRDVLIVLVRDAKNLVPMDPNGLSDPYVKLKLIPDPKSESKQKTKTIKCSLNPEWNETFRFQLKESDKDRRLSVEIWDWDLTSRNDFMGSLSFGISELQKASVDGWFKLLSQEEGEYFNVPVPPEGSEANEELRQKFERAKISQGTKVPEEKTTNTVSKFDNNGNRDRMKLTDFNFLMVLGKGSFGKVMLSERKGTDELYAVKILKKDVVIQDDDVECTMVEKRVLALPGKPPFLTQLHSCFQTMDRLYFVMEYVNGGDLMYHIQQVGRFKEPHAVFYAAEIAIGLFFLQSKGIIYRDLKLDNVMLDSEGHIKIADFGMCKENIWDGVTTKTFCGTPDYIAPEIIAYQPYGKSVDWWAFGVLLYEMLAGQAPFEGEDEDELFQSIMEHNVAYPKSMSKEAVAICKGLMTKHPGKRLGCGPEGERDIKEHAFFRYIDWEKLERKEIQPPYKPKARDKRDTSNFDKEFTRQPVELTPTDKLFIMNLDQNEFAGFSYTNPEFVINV
T8 sequence (Q9Y243 whole entry): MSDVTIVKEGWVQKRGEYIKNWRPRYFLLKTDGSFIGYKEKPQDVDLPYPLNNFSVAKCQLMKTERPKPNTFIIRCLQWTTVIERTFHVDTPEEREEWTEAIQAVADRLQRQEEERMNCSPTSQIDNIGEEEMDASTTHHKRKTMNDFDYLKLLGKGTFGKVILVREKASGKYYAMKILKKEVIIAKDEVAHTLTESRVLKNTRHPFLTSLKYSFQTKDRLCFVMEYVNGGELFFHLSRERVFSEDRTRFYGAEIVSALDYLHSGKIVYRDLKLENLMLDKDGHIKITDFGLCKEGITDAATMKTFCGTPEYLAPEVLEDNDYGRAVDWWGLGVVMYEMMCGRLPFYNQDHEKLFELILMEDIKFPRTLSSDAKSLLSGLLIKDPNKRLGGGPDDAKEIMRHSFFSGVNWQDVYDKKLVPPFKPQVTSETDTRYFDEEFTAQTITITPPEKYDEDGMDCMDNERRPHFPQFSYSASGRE
T7 sequence (P49674 whole entry): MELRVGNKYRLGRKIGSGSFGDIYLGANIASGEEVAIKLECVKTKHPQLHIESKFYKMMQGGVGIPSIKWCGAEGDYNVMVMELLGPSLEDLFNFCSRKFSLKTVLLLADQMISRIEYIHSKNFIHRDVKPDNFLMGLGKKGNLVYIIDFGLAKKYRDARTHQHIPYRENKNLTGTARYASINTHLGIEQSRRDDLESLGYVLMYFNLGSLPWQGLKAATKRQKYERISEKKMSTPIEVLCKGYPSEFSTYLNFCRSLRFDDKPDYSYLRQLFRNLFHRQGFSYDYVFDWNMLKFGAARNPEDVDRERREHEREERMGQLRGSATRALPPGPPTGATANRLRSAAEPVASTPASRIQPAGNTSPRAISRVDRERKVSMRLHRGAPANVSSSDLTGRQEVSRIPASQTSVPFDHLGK
T13 sequence (P51451 whole entry): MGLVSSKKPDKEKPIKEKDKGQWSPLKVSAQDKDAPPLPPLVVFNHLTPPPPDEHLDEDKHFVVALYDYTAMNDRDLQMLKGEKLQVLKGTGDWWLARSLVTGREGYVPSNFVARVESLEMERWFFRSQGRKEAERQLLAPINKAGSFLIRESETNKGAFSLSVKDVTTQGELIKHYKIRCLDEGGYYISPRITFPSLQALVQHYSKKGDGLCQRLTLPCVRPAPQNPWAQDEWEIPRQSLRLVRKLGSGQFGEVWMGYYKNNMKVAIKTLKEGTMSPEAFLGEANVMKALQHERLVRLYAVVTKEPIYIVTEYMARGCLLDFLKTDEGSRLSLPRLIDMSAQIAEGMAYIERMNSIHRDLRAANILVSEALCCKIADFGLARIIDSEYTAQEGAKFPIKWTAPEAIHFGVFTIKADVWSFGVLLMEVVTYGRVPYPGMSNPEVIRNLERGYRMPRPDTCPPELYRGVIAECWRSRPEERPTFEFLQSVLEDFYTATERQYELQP
T12 sequence (P36507 whole entry): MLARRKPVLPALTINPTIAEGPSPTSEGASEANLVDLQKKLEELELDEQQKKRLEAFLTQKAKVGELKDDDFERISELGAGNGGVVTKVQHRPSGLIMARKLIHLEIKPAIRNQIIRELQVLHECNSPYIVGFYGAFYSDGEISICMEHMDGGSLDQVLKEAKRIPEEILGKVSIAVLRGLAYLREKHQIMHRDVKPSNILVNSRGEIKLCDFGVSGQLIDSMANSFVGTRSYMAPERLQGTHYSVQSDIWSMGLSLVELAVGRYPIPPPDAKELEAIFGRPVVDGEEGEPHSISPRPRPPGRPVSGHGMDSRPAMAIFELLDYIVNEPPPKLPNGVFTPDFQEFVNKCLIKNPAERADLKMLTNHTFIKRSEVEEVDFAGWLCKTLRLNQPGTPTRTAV
T1 sequence (Q00537 whole entry): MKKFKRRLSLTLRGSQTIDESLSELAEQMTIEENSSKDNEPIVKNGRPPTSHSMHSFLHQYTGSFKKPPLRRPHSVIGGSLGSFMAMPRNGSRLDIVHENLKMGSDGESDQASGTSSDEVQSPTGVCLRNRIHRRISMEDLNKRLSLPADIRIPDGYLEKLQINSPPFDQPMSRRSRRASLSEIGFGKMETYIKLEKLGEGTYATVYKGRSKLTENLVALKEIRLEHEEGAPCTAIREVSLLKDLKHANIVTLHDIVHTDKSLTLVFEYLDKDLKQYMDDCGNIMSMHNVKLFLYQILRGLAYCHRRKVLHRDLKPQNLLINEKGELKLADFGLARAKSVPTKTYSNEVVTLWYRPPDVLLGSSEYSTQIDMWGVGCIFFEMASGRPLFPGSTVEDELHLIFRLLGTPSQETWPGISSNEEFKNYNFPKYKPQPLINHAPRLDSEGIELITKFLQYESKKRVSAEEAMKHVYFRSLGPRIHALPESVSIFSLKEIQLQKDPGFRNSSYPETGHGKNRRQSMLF
T1 sequence (Q15078 whole entry partner): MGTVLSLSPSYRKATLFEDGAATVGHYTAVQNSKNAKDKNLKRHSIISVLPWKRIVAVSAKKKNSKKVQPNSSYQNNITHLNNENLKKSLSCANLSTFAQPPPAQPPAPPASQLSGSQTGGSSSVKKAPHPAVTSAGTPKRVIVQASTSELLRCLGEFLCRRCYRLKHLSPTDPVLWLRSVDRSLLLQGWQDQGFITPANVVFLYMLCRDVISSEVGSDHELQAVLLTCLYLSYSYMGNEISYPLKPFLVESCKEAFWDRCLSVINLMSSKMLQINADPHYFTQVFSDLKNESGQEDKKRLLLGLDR
T14 sequence (O75582 whole entry): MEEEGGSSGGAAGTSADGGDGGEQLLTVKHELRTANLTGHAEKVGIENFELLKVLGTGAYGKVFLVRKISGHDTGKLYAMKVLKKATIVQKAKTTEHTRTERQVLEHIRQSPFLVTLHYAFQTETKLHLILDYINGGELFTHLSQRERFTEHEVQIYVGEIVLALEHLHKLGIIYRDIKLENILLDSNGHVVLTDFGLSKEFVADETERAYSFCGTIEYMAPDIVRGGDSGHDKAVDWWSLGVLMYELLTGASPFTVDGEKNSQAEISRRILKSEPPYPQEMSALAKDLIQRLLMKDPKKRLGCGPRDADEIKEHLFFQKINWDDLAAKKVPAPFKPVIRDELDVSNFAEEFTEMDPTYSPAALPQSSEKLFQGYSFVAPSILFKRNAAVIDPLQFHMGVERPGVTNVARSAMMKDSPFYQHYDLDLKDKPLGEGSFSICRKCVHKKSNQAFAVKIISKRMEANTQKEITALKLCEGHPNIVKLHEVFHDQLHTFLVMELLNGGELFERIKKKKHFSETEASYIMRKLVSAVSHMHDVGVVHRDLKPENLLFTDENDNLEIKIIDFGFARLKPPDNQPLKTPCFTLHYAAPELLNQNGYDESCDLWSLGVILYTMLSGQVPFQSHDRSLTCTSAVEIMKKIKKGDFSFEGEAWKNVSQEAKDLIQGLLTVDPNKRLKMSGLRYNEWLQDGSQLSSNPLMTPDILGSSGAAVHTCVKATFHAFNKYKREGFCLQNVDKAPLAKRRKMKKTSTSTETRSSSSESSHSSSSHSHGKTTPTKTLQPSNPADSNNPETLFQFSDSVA

Structure (SMILES) | Residual activity ([1]; 1.0E-05 M) | Residual activity ([1]; 1.0E-06 M) | Residual activity ([2]; 1.0E-05 M) | Residual activity ([2]; 1.0E-06 M) | Residual activity ([3]; 1.0E-05 M) | Residual activity ([3]; 1.0E-06 M) | Residual activity ([4]; 1.0E-05 M) | Residual activity ([4]; 1.0E-06 M) | Residual activity ([5]; 1.0E-05 M) | Residual activity ([5]; 1.0E-06 M) | Residual activity ([6]; 1.0E-05 M) | Residual activity ([6]; 1.0E-06 M) | Residual activity ([7]; 1.0E-05 M) | Residual activity ([7]; 1.0E-06 M) | Residual activity ([8]; 1.0E-05 M) | Residual activity ([8]; 1.0E-06 M) | Residual activity ([9]; 1.0E-05 M) | Residual activity ([9]; 1.0E-06 M) | Residual activity ([10]; 1.0E-05 M) | Residual activity ([10]; 1.0E-06 M) | other results
O=C(Nc1ccc(F)c(Nc2ccc3c(c2)CCCCC3=O)c1)c1cccc(F)c1 [Compound 109] | 92 % of control | 109 % of control | 87 % of control | 93 % of control | 137 % of control | 85 % of control | 91 % of control | 97 % of control | 116 % of control | 108 % of control | 97 % of control | 88 % of control | 15 % of control | 52 % of control | 102 % of control | 95 % of control | 95 % of control | 95 % of control | 92 % of control | 94 % of control | inhibition at 10 µM ([7]; 10 µM, read-out: inhibition of CK1-ε): ≥ 50%; Residual activity ([11]; 1.0E-05 M): 63 % of control; Residual activity ([11]; 1.0E-06 M): 81 % of control; Residual activity ([12]; 1.0E-05 M): 89 % of control; Residual activity ([12]; 1.0E-06 M): 100 % of control; Residual activity ([13]; 1.0E-05 M): 82 % of control; Residual activity ([13]; 1.0E-06 M): 82 % of control; Residual activity ([14]; 1.0E-05 M): 93 % of control; Residual activity ([14]; 1.0E-06 M): 96 % of control
O=C(Cc1ccccc1)Nc1ccc(F)c(Nc2ccc3c(c2)CCCCC3=O)c1 [Compound 100] | 84 % of control | 102 % of control | 92 % of control | 91 % of control | 109 % of control | 89 % of control | 96 % of control | 96 % of control | 123 % of control | 121 % of control | 79 % of control | 87 % of control | 117 % of control | 107 % of control | 100 % of control | 114 % of control | 93 % of control | 93 % of control | 90 % of control | 102 % of control | Residual activity ([11]; 1.0E-05 M): 78 % of control; Residual activity ([11]; 1.0E-06 M): 77 % of control; Residual activity ([12]; 1.0E-05 M): 88 % of control; Residual activity ([12]; 1.0E-06 M): 102 % of control; Residual activity ([13]; 1.0E-05 M): 110 % of control; Residual activity ([13]; 1.0E-06 M): 118 % of control; Residual activity ([14]; 1.0E-05 M): 97 % of control; Residual activity ([14]; 1.0E-06 M): 104 % of control
